We go through eleven molecules from patent US20230234962A1, “OXA-AZASPIRO DERIVATIVE, AND PREPARATION METHOD THEREFOR AND PHARMACEUTICAL USE THEREOF” (priority 2020, published 2023).

What all share (type): biochemical
For experiment [1], the target named is PI3Kδ enzyme (Homo sapiens, UniProt O00329). The experiment in a line: ADP-Glo kinase assay, inhibition of PI3Kδ enzyme. On the procedure: (§1) In this experiment, an ADP-Glo™ kinase assay kit is used. A substrate is phosphorylated under the action of enzyme, and ADP is generated at the same time. An ADP-Glo Reagent is added to remove unreacted ATP in the reaction system, and the ADP generated by the reaction is detected by a kinase detection reagent. In the presence of a compound, the inhibition rate of the compound is calculated by measuring the signal value.
PI3Kδ enzyme, sequence (O00329 whole entry): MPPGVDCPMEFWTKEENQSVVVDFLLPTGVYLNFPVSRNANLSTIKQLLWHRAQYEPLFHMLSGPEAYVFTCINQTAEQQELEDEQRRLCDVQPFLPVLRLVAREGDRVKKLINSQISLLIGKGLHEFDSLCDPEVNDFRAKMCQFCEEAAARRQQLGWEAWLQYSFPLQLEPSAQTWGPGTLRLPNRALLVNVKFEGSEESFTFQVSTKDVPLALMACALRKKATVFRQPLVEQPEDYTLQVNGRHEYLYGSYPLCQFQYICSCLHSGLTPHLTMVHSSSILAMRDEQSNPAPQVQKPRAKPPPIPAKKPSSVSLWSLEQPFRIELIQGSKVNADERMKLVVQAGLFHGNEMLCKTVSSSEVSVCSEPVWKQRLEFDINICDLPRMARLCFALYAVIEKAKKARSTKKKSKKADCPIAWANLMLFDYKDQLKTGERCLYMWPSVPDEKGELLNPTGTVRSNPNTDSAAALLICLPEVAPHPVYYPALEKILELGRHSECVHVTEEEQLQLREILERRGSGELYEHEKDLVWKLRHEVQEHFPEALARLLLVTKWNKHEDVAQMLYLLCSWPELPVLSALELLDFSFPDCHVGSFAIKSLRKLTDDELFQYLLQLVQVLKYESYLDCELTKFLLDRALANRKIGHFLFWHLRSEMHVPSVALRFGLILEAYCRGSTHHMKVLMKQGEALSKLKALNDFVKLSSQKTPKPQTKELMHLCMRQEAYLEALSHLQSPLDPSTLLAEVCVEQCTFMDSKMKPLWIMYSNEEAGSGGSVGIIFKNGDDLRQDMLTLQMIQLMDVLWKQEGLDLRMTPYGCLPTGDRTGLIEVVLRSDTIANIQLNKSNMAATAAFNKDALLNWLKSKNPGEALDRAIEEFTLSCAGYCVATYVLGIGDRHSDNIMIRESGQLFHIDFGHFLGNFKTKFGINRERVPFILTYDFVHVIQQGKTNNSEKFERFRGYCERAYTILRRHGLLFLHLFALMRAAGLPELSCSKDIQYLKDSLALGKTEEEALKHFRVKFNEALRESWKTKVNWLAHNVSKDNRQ
PI3Kδ enzyme, sequence (P27986 whole entry partner): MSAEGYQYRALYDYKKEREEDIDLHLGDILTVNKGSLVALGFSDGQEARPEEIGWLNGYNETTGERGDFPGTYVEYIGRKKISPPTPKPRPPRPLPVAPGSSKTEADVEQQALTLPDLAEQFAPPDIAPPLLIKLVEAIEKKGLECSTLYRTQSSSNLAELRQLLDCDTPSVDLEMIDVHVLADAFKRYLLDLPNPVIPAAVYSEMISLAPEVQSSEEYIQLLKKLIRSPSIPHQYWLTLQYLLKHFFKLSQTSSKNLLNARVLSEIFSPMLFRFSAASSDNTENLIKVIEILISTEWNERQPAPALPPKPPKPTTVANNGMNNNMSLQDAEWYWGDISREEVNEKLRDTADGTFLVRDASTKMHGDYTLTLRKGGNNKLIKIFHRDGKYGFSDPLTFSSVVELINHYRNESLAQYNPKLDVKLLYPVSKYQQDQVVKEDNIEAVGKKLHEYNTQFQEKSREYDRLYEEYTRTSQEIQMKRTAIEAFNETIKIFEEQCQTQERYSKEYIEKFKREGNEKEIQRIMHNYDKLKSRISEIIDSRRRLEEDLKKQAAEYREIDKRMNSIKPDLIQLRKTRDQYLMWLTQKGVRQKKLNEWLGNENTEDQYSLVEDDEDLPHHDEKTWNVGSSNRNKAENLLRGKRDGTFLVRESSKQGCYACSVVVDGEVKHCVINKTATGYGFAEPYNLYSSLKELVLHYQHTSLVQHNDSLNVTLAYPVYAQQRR
(§2) Test compounds were each subjected to 3-fold dilution from a starting concentration of 10000 nM to obtain 11 concentrations, and duplicate wells were set for the test. Gradient dilution to a corresponding 100-fold final concentration in a 384-well plate was performed to obtain solutions with 11 different concentrations. 50 nL of each solution was transferred to compound wells of a 384-well plate with Echo; negative control wells were added with 50 nL of DMSO. A kinase solution with a 2-fold final concentration was prepared using 1×kinase buffer. 2.5 μL of the kinase solution with a 2-fold final concentration was added to the compound wells; 2.5 μL of the 1× kinase buffer was added to the negative control wells. The mixture was centrifuged at 1000 rpm for 30 s, mixed well by shaking, and then incubated at room temperature for 10 min. A mixed solution of ATP and substrate P1P2 with a 2-fold final concentration was prepared using 1× kinase buffer. The reaction was initiated by adding 2.5 μL of the mixed solution of ATP and substrate with a 2-fold final concentration. The mixture in the 384-well plate was centrifuged at 1000 rpm for 30 s, mixed well by shaking, and then reacted at room temperature for 120 min. 5 μL of ADP-Glo reagent was added, and the mixture was centrifuged at 1000 rpm for 30 s, mixed well by shaking, and then incubated at room temperature for 40 min. 10 μL of kinase detection reagent was added, and the resulting mixture was centrifuged at 1000 rpm for 30 s, mixed well by shaking, and then incubated at room temperature for 30 min. The luminescence RLU was read with an Envision microplate reader.
(§3) IC50 values for the inhibitory activity of the compounds were calculated using Graphpad Prism software.

For experiment [2], the target named is PI3Kγ enzyme (Homo sapiens, UniProt P48736). The experiment in a line: ADP-Glo kinase assay, selectivity, PI3Kγ enzyme. Conditions: 11 concentrations from 10000 nM. As for the experimental part: as §1, §2, §3
PI3Kγ enzyme, sequence (P48736 whole entry): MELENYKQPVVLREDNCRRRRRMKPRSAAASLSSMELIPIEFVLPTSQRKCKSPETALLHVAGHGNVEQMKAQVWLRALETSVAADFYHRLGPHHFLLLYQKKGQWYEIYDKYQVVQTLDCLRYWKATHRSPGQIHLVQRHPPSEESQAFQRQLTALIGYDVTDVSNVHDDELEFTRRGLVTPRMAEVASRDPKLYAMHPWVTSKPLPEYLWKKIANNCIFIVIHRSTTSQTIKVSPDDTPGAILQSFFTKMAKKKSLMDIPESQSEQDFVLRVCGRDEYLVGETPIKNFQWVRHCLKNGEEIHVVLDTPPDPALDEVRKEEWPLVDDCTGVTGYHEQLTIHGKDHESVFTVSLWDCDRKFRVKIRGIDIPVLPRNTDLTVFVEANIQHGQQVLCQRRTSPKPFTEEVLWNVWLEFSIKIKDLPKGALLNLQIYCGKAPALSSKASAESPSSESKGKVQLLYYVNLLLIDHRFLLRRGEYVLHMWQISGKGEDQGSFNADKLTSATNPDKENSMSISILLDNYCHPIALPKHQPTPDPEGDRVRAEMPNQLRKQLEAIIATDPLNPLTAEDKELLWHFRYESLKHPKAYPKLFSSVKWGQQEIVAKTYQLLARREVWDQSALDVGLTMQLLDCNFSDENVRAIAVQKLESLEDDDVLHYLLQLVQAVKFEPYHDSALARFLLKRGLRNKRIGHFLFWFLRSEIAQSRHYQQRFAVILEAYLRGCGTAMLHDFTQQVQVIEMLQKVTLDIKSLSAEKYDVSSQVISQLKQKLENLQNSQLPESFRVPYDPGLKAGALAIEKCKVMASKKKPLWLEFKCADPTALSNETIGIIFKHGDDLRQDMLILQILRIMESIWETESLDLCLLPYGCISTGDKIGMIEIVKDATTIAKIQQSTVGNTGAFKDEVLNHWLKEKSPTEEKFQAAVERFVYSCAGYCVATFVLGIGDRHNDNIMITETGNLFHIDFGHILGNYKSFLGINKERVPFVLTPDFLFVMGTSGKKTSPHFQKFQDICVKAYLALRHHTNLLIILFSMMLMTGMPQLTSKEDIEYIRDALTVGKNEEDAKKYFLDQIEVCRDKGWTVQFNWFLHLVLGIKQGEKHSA
The target of experiment [3] is PI3Kβ enzyme (Homo sapiens, UniProt P42338). The experiment in a line: ADP-Glo kinase assay, selectivity, PI3Kβ enzyme. Conditions: 11 concentrations from 10000 nM. As for the experimental part:
as §1, §2, §3

Experiment [4] deals with PI3Kα enzyme (Homo sapiens, UniProt P42336). Put plainly: ADP-Glo kinase assay, selectivity, PI3Kα enzyme. Conditions: 11 concentrations from 10000 nM. As for the experimental part: as §1, §2, §3
PI3Kα enzyme, sequence (P42336 whole entry): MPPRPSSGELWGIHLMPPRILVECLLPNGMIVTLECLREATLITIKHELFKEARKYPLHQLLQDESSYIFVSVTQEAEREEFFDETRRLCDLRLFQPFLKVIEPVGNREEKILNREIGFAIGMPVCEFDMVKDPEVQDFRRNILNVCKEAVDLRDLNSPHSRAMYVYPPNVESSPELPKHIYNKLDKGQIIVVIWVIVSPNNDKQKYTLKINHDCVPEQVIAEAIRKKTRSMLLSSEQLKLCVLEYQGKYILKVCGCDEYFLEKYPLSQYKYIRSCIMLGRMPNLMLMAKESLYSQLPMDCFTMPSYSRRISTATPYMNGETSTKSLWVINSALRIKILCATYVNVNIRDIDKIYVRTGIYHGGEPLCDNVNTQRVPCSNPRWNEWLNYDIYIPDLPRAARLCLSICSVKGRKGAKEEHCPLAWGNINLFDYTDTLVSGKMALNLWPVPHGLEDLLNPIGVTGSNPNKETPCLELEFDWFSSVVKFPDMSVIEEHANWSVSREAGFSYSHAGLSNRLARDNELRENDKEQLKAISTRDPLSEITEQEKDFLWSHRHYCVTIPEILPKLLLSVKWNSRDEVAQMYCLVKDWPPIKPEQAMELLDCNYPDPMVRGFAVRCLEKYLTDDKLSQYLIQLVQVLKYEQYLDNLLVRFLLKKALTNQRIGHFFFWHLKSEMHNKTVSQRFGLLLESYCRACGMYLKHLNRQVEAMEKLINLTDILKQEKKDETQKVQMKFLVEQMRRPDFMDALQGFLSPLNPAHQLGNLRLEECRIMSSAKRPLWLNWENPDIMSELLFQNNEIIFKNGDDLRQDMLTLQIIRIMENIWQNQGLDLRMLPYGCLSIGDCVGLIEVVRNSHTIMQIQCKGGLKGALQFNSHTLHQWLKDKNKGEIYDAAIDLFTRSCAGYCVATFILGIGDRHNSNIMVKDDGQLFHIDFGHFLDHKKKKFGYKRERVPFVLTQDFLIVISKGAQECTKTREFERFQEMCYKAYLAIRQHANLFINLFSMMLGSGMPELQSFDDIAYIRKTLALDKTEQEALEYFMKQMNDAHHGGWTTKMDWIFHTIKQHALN
PI3Kα enzyme, sequence (P27986 whole entry, further chain): as the sequence (P27986 whole entry partner) above
Setting [5] is: ADP-Glo, PIK3CD/PIK3R1, 11 concentrations from 10000 nM, read-out: PI3Kδ enzyme IC50.

Where two headings read alike, the source gives them in different places.

PI3Kβ enzyme, sequence (P27986 whole entry): as the sequence (P27986 whole entry partner) above
PI3Kβ enzyme, sequence (P42338 whole entry): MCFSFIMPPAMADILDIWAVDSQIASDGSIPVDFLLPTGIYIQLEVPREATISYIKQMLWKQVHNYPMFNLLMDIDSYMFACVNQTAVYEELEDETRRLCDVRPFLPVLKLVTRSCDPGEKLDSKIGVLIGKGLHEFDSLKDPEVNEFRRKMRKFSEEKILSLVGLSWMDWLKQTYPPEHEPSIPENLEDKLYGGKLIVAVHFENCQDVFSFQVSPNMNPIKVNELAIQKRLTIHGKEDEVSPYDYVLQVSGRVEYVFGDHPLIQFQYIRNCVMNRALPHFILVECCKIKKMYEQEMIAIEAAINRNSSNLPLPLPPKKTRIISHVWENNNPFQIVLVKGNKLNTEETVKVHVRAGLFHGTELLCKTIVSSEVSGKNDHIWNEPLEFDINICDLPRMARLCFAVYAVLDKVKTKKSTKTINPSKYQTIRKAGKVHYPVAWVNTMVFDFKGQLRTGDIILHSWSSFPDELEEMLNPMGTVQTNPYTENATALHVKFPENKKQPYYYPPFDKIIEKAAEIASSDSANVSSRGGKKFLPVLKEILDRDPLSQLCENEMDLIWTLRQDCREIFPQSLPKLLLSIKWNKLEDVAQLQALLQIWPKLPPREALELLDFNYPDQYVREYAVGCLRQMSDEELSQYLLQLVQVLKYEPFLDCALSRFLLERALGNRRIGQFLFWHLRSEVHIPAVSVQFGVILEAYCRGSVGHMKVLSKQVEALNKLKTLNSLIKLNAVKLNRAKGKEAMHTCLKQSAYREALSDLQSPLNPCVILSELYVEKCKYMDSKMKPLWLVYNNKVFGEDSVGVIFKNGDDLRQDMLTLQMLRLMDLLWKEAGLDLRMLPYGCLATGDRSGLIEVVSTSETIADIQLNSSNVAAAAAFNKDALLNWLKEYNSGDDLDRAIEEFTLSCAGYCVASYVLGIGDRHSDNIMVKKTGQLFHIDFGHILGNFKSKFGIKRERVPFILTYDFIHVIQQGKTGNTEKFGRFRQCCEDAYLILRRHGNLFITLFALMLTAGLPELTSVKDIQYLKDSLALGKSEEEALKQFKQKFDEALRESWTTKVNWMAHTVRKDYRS

In turn, `O=C(c1nn(-c2ccc(CN3CCOCC3)cc2)c2c1CS(=O)(=O)c1c(F)cccc1-2)N1CCOCC12CC2` [Control Example 10, (6-fluoro-1-(4-(morpholinomethyl)phenyl)-5,5-dioxido-1,4-dihydrothiochromeno[4,3-c]pyrazol-3-yl)(7-oxa-4-azaspiro[2.5]octan-4-yl)methanone, reference compound] returned an IC50 in experiment [1] of over 10 µM.

For `O=C(c1nn(-c2ccc(CN3CCOCC3)cc2)c2c1CS(=O)(=O)c1c(F)cccc1-2)N1CCOC2(CC2)C1` [Example 1, (6-fluoro-1-(4-(morpholinomethyl)phenyl)-5,5-dioxido-1,4-dihydrothiochromeno[4,3-c]pyrazol-3-yl)(4-oxa-7-azaspiro[2.5]octan-7-yl)methanone], the IC50 is 6.21 µM in experiment [2], 0.013 µM in experiment [1], 1.32 µM in experiment [3] and 0.468 µM in experiment [4].

As for `O=C(c1nn(-c2ccc(CN3CCOCC3)cc2)c2c1CS(=O)(=O)c1c(Cl)cccc1-2)N1CCOC2(CC2)C1` [Example 2, (6-chloro-1-(4-(morpholinomethyl)phenyl)-5,5-dioxido-1,4-dihydrothiochromeno[4,3-c]pyrazol-3-yl)(4-oxa-7-azaspiro[2.5]octan-7-yl)methanone], in experiment [1] (setting [5]), the IC50 is 0.0184 µM.

As to `COc1cccc2c1-c1c(c(C(=O)N3CCOC4(CC4)C3)nn1-c1ccc(CN3CCOCC3)cc1)CS2(=O)=O` [Example 3, (9-methoxy-1-(4-(morpholinomethyl)phenyl)-5,5-dioxido-1,4-dihydrothiochromeno[4,3-c]pyrazol-3-yl)(4-oxa-7-azaspiro[2.5]octan-7-yl)methanone], the IC50 in experiment [1] (setting [5]) came out at 0.0056 µM.

Take `COc1ccc2c(c1)S(=O)(=O)Cc1c(C(=O)N3CCOC4(CC4)C3)nn(-c3ccc(CN4CCOCC4)cc3)c1-2` [Example 4, (7-methoxy-1-(4-(morpholinomethyl)phenyl)-5,5-dioxido-1,4-dihydrothiochromeno[4,3-c]pyrazol-3-yl)(4-oxa-7-azaspiro[2.5]octan-7-yl)methanone]: in experiment [1] (setting [5]), the IC50 came out at 0.0079 µM.

As to `COc1cccc2c1S(=O)(=O)Cc1c(C(=O)N3CCOC4(CC4)C3)nn(-c3ccc(CN4CCOCC4)cc3)c1-2` [Example 5, (6-methoxy-1-(4-(morpholinomethyl)phenyl)-5,5-dioxido-1,4-dihydrothiochromeno[4,3-c]pyrazol-3-yl)(4-oxa-7-azaspiro[2.5]octan-7-yl)methanone], the IC50 was over 10 µM in experiment [2], 0.019 µM in experiment [1], 2.79 µM in experiment [3] and 2.33 µM in experiment [4].

`Cc1cccc2c1S(=O)(=O)Cc1c(C(=O)N3CCOC4(CC4)C3)nn(-c3ccc(CN4CCOCC4)cc3)c1-2` [Example 6, (6-methyl-1-(4-(morpholinomethyl)phenyl)-5,5-dioxido-1,4-dihydrothiochromeno[4,3-c]pyrazol-3-yl)(4-oxa-7-azaspiro[2.5]octan-7-yl)methanone]: the IC50 was over 10 µM in experiment [2], 0.068 µM in experiment [1], 7.06 µM in experiment [3] and 2.57 µM in experiment [4].

With `O=C(c1nn(-c2ccc(CN3CCOCC3)cc2)c2c1CS(=O)(=O)c1cc(Cl)ccc1-2)N1CCOC2(CC2)C1` [Example 7, (7-chloro-1-(4-(morpholinomethyl)phenyl)-5,5-dioxido-1,4-dihydrothiochromeno[4,3-c]pyrazol-3-yl)(4-oxa-7-azaspiro[2.5]octan-7-yl)methanone], the IC50 in experiment [2] is over 10 µM; in experiment [1] it was 0.0265 µM; in experiment [3], 1.74 µM; in experiment [4], 1.52 µM.

`Cc1ccc2c(c1)S(=O)(=O)Cc1c(C(=O)N3CCOC4(CC4)C3)nn(-c3ccc(CN4CCOCC4)cc3)c1-2` [Example 9, (7-methyl-1-(4-(morpholinomethyl)phenyl)-5,5-dioxido-1,4-dihydrothiochromeno[4,3-c]pyrazol-3-yl)(4-oxa-7-azaspiro[2.5]octan-7-yl)methanone]: the IC50 was over 10 µM in experiment [2], 0.025 µM in experiment [1], 1.55 µM in experiment [3] and 1.76 µM in experiment [4].

Take `O=C(c1nn(-c2ccc(CN3CCOCC3)cc2)c2c1CS(=O)(=O)c1c-2ccc(Cl)c1F)N1CCOC2(CC2)C1` [Example 11, (7-chloro-6-fluoro-1-(4-(morpholinomethyl)phenyl)-5,5-dioxido-1,4-dihydrothiochromeno[4,3-c]pyrazol-3-yl)(4-oxa-7-azaspiro[2.5]octan-7-yl)methanone]: the IC50 was 8.92 µM in experiment [2], 0.0105 µM in experiment [1], 0.736 µM in experiment [3] and 0.441 µM in experiment [4].

Turning to `Cc1cccc2c1-c1c(c(C(=O)N3CCOC4(CC4)C3)nn1-c1ccc(CN3CCOCC3)cc1)CS2(=O)=O` [Example 12, (9-methyl-1-(4-(morpholinomethyl)phenyl)-5,5-dioxido-1,4-dihydrothiochromeno[4,3-c]pyrazol-3-yl)(4-oxa-7-azaspiro[2.5]octan-7-yl)methanone], in experiment [1] (setting [5]), the IC50 came to 0.0058 µM.
